Here are results for 4 compounds from patent publication US20120022107A1, “2-(PIPERIDIN-1-YL)-4-AZOLYL-THIAZOLE-5-CARBOXYLIC ACID DERIVATIVES AGAINST BACTERIAL INFECTIONS” (ASTRAZENECA AB, priority 2008, published 2012).

One assay has as its target Msmeg (Mycolicibacterium smegmatis, UniProt A0QNE0). Put plainly: Msmeg IC50. In kind it is biochemical.
Another assay relates to M. tuberculosis. Put plainly: MIC testing: Microplate Alamar Blue Assay. Format: cell-based, Mycobacterium tuberculosis. The conditions noted are these: Mycobacterium tuberculosis, lowest concentration preventing color change from blue to pink, read-out: Mtu MIC. Background: The colour change of resazurin is a common sign of viable cells or microbes.
For a further assay, the system named is Hinf. As to the kind of experiment: Hinf MIC. Format: cell-based, Haemophilus influenzae. The conditions noted are these: Haemophilus influenzae; read-out: Hinf_MIC.
A further assay has as its system Sau. As to the kind of experiment: Sau MIC. Particulars: Staphylococcus aureus; read-out: Sau_MIC. In kind it is cell-based, Staphylococcus aureus.
Another assay concerns Spn. As to the kind of experiment: Spn MIC. In kind it is cell-based, Streptococcus pneumoniae. Particulars: Streptococcus pneumoniae; read-out: Spn_MIC.

Converted amounts (≈) assume the structure as drawn.

Chain of Msmeg (A0QNE0 whole entry): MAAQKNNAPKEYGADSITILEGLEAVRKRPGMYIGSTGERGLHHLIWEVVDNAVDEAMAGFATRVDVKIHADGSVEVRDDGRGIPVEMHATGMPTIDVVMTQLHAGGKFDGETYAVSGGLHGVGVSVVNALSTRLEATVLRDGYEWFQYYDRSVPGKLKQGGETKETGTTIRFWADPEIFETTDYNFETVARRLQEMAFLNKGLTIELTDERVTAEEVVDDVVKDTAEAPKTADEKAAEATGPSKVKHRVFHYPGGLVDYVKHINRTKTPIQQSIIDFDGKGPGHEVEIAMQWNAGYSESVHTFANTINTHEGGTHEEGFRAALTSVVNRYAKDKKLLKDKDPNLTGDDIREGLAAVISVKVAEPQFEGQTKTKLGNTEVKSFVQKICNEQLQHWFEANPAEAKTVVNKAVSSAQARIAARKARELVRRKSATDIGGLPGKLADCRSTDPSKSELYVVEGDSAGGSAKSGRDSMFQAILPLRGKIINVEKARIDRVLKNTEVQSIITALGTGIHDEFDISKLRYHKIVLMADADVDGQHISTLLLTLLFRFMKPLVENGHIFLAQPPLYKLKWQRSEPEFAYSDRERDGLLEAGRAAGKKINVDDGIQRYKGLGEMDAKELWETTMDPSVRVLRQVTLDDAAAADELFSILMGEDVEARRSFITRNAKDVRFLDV

`CO[C@H]1CN(c2nc(-c3ncnn3CC3CC3)c(C(=O)O)s2)CC[C@H]1NC(=O)c1[nH]c(C)c(Cl)c1Br` [Example 16, 2-((3S,4R)-4-(3-bromo-4-chloro-5-methyl-1H-pyrrole-2-carboxamido)-3-methoxypiperidin-1-yl)-4-(1-(cyclopropylmethyl)-1H-1,2,4-triazole-5-yl) thiazole-5-carboxylic acid] yielded an IC50 on Msmeg of under 2.5 nM. In addition, the MIC in the assay on M. tuberculosis is 0.03 µg/mL (≈ 0.0501 µM); in the assay with Hinf, 0.25 µg/mL (≈ 0.417 µM); with Sau, 8 µg/mL (≈ 13.4 µM); in the assay on Spn it was 0.25 µg/mL (≈ 0.417 µM).

On Msmeg, `CO[C@H]1CN(c2nc(-c3ncnn3CC3CC3)c(C(=O)O)s2)CC[C@H]1NC(=O)c1[nH]c(C)c(Br)c1Cl` [Example 18, 2-((3S,4R)-4-(4-bromo-3-chloro-5-methyl-1H-pyrrole-2-carboxamido)-3-methoxypiperidin-1-yl)-4-(1-(cyclopropylmethyl)-1H-1,2,4-triazol-5-yl) thiazole-5-carboxylic acid] came in with a concentration for half-maximal inhibition (IC50) of 4 nM. For the same compound, the MIC with M. tuberculosis was determined as 0.06 µg/mL (≈ 0.1 µM); in the assay on Hinf, 0.5 µg/mL (≈ 0.835 µM); with Sau, 0.125 µg/mL (≈ 0.209 µM); in the assay with Spn, 0.25 µg/mL (≈ 0.417 µM).

Compound `COCCn1ncnc1-c1nc(N2CC[C@@H](NC(=O)c3[nH]c(C)c(Cl)c3Br)[C@@H](OC)C2)sc1C(=O)O` [Example 19, 2-((3S,4R)-4-(3-bromo-4-chloro-5-methyl-1H-pyrrole-2-carboxamido)-3-methoxypiperidin-1-yl)-4-(1-(2-methoxyethyl)-1H-1,2,4-triazol-5-yl) thiazole-5-carboxylic acid] yielded an IC50 at Msmeg of under 2.5 nM. Also, the MIC was 0.03 µg/mL (≈ 0.0498 µM) in the assay with M. tuberculosis, 0.25 µg/mL (≈ 0.415 µM) with Hinf, 0.125 µg/mL (≈ 0.207 µM) in the assay with Sau and 0.125 µg/mL (≈ 0.207 µM) in the assay on Spn.

In turn, `COCCn1ncnc1-c1nc(N2CC[C@@H](NC(=O)c3[nH]c(C)c(Cl)c3Br)[C@@H](F)C2)sc1C(=O)O` [Example 20, 2-((3S,4R)-4-(3-bromo-4-chloro-5-methyl-1H-pyrrole-2-carboxamido)-3-fluoropiperidin-1-yl)-4-(1-(2-methoxyethyl)-1H-1,2,4-triazol-5-yl) thiazole-5-carboxylic acid] showed an IC50 on Msmeg of 4 nM. Besides, the MIC in the assay with M. tuberculosis, with Hinf, with Sau and in the assay with Spn was 0.125 µg/mL (≈ 0.212 µM) in each case.

Broadly, the IC50 is the concentration that gives 50% inhibition. The low end stands for inhibition by little substance, the high end for a need for much substance.
